In PubChem BioAssay (NCI) one finds TGI data, which are given here for 13 compounds.

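Test compounds were applied to cells in 96-well plates for 48 hours at 5 doses. Definition used: TGI = concentration required for complete inhibition of growth.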

What all share (assay): inhibition of tumour cell growth, NCI panel, 48 h
In experiment [1] the test system is NCI-H460 lung.
For experiment [2], the system named is EKVX NSCLC.
For experiment [3], the system named is 786-0 renal.
In experiment [4] the test system is DU-145 prostate.
Experiment [5] relates to U251 CNS.
Experiment [6] deals with RPMI-8226 leukemia.
Experiment [7] relates to BT-549 breast.
For experiment [8], the system named is SNB-75 CNS.
In experiment [9] the test system is A549 NSCLC.
In experiment [10] the test system is SF-268 CNS.
For experiment [11], the system named is ACHN renal.
The subject of experiment [12] is HOP-92 NSCLC.
In experiment [13] the test system is T-47D breast.
In experiment [14] the test system is NCI/ADR-RES ovarian.
Experiment [15] relates to NCI-H23 lung.
Experiment [16] deals with OVCAR-8 ovarian.

With `CN1CCOC1(C)c1ccccc1` (stereo not drawn), the TGI in [1], in [2], in experiment [3], in experiment [4], in experiment [5] and in experiment [6] was > 100 µM in each case. Moreover, the TGI in experiment [7], in experiment [8], in experiment [9], in [10], in experiment [11] and in experiment [12] was > 100 µM throughout. The TGI in [13], in experiment [14], in experiment [15] and in experiment [16] was > 100 µM each time.
For the compound `CC(=O)OC1CCn2c1nc1c2C(=O)C=C(N2CC2)C1=O` (stereo not drawn), the TGI in experiment [1] was determined as 5.96 µM; in experiment [2], 2.39 µM; in experiment [3], 0.557 µM; in experiment [4], 12.7 µM; in [5], 0.853 µM; in experiment [6], 1.37 µM. In addition, the TGI in experiment [7] is 2.54 µM; in experiment [8], 0.479 µM; in experiment [9], 6.25 µM; in [10], 0.784 µM; in experiment [11], 0.173 µM; in experiment [12], 1.83 µM. In addition, the TGI in [13] worked out at 2.38 µM; in experiment [14], 1.28 µM; in experiment [15], 1.08 µM; in experiment [16], 1.57 µM.
Regarding `COC(=O)c1cc(C#N)[nH]c1-c1ccc(Br)s1`, the TGI in experiment [1] was 37.8 µM; in experiment [2], 17.1 µM; in experiment [3] it was 27.7 µM; in experiment [4] it was 31.6 µM; in [5] it was 24.8 µM; in [6] it was > 73.3 µM. Further, the TGI in experiment [7] turned out to be 22.8 µM; in experiment [8], 24.9 µM; in experiment [9], 23 µM; in experiment [10] it was 24.2 µM; in experiment [11], 31.9 µM; in experiment [12], 15.3 µM. The TGI in experiment [13] is 17.2 µM; in experiment [14] it was 30.6 µM; in experiment [15] it was 18.9 µM; in [16], 27.1 µM.
For the compound `C[C@H]1[C@H]2[C@H](C[C@@]3(C)C4=CC[C@H]5C(C)(C)[C@@H](OC6OCC(O)C(O)C6O)CC[C@@]56C[C@@]46CC[C@]23C)O[C@@]2(O)[C@@H]1OC(C)(C)[C@H]2O` (stereo partly drawn), the TGI in [1] turned out to be 7.83 µM; in experiment [2], 2.61 µM; in experiment [3], 2.76 µM; in [4] it was 1.91 µM; in experiment [5], 5.5 µM; in [6] it was 4.68 µM. Besides, the TGI came out at 8.78 µM in [7]; 6 µM in [8]; 5.5 µM in [9]; 6.35 µM in [10]; 6.35 µM in [11]; 3.28 µM in experiment [12]. Moreover, the TGI in [13] was determined as 1.81 µM; in experiment [14], 9.94 µM; in experiment [15] it was 3.31 µM; in experiment [16], 1.81 µM.
For `C=C1[C@@H](OC(C)=O)/C=C/C2C3C(=O)[C@@](C)(OC(C)=O)[C@H]([C@H](OC(C)=O)[C@]4(O)[C@@H](C)C(=O)O[C@H]4[C@H]1Cl)[C@@]23C` (stereo partly drawn), the TGI in experiment [1], in experiment [2], in [3], in [4], in [5] and in experiment [6] was > 100 µM in each case. Further, the TGI in [7], in experiment [8], in [9], in experiment [10], in experiment [11] and in experiment [12] was > 100 µM each time. Further, the TGI in experiment [13], in [14], in experiment [15] and in [16] was > 100 µM throughout.
Take `CSc1ncc2c(C#N)c3n(C)c4ccccc4n3c(=O)c2n1`: the TGI in experiment [1], in experiment [2], in [3], in experiment [4], in experiment [5] and in experiment [6] was > 100 µM in each case. Further, the TGI in [7], in [8], in [9], in experiment [10], in experiment [11] and in experiment [12] was > 100 µM throughout. In addition, the TGI in experiment [13], in experiment [14], in experiment [15] and in experiment [16] was > 100 µM throughout.
`Cc1cccc2c(N)c3cccc(C(=O)NCCNCCN)c3nc12`: the TGI in experiment [1] is 19.8 µM; in experiment [2], > 94.6 µM; in experiment [3] it was 16.9 µM; in experiment [4], > 72.4 µM; in experiment [5], > 24.5 µM; in experiment [6], > 90.1 µM. Also, the TGI in experiment [7] was 33.3 µM; in experiment [8], 4.88 µM; in experiment [9] it was 20.4 µM; in experiment [10], 1.27 µM; in experiment [11], > 100 µM; in [12], > 71.8 µM. Besides, the TGI is > 86.1 µM in experiment [13], > 100 µM in experiment [14], 6.21 µM in [15] and 17.8 µM in experiment [16].
Regarding `CN(C)/C=N/c1cc(=O)n(C)c(=O)n1C`, the TGI in [1], in experiment [2], in [3], in experiment [4], in experiment [5] and in experiment [6] was > 100 µM in each case. In addition, the TGI in [7], in experiment [8], in experiment [9], in experiment [10], in experiment [11] and in experiment [12] was > 100 µM throughout. For the same compound, the TGI in experiment [13], in experiment [14], in experiment [15] and in [16] was > 100 µM in each case.
For `COC(=O)NCCc1[nH]nc2c1C(=O)C=C(Nc1ccccc1OC)C2=O`, the TGI in experiment [1] is > 100 µM; in experiment [2] it was > 100 µM; in experiment [3], > 100 µM; in experiment [4], > 100 µM; in experiment [5] it was 72.5 µM; in experiment [6], > 100 µM. The TGI in [7], in [8], in experiment [9], in experiment [10], in [11] and in experiment [12] was > 100 µM in each case. In addition, the TGI in experiment [13] is > 100 µM; in experiment [14], 52.1 µM; in experiment [15], 32.7 µM; in experiment [16], 35.1 µM.
For `COC1=CC(=O)C2=C(C1=O)[C@H]1CC[C@]3(C)C(=O)CC[C@H]3[C@@H]1CC2`, the TGI in experiment [1] was > 100 µM; in experiment [2] it was 30.4 µM; in experiment [3], 53.2 µM; in [4], 57.1 µM; in [5], > 100 µM; in experiment [6] it was 81.3 µM. In addition, the TGI is 71.2 µM in experiment [7]; > 100 µM in [8]; > 100 µM in experiment [9]; 46.3 µM in experiment [10]; 79.3 µM in experiment [11]; 35.8 µM in experiment [12]. For the same compound, the TGI is 57.2 µM in experiment [13], > 100 µM in experiment [14], > 100 µM in [15] and 33.1 µM in [16].
As to `CC(=O)O[C@H]1[C@@H](OC2CCCC2(c2ccccc2)c2ccccc2)O[N+]([O-])=C[C@@H]1c1ccccc1` (stereo partly drawn), the TGI was 60.2 µM in experiment [1]; 30.4 µM in experiment [2]; 3.26 µM in [3]; 23.7 µM in [4]; 27.3 µM in experiment [5]; 18.9 µM in [6]. Also, the TGI in [7] was 17.5 µM; in [8], 18 µM; in [9], 30.9 µM; in experiment [10], 13.4 µM; in experiment [11], 12.5 µM; in experiment [12], 18.2 µM. Also, the TGI in [13] was > 37.9 µM; in [14] it was 12.9 µM; in [15], 35.9 µM; in [16], 6.53 µM.
With `O=C(NCCc1ccccn1)c1ccc2cc(C(=O)N3CC(CCl)c4ccc([N+](=O)[O-])cc43)[nH]c2c1` (stereo not drawn), the TGI in [1] was > 100 µM; in [2], > 100 µM; in experiment [3], > 63 µM; in [4], > 100 µM; in [5] it was > 100 µM; in [6], > 100 µM. In addition, the TGI was > 100 µM in experiment [7]; > 100 µM in [8]; > 100 µM in experiment [9]; > 100 µM in experiment [10]; > 100 µM in experiment [11]; 52.1 µM in experiment [12]. The TGI is > 100 µM in experiment [13], > 100 µM in experiment [14], > 100 µM in experiment [15] and > 86.9 µM in experiment [16].
Regarding `C=CC(=O)C#Cc1cnc(OC)nc1OC`, the TGI is > 59.9 µM in experiment [1]; > 72 µM in experiment [2]; 12.6 µM in experiment [3]; > 100 µM in experiment [4]; 18.7 µM in experiment [5]; 6.93 µM in experiment [6]. Further, the TGI was 17.5 µM in [7]; 20.5 µM in [8]; > 100 µM in [9]; > 71.9 µM in [10]; 23.6 µM in [11]; > 54.3 µM in experiment [12]. The TGI was 55.8 µM in experiment [13], > 86.7 µM in [14], 37.6 µM in experiment [15] and > 73.6 µM in experiment [16].
